Measured values taken from patent US10301354B2, “Antibacterial and fungicidal peptide in which lysine and tryptophan residues are repeated, and use thereof” (priority 2011, dated 2019).
Values after ≈ are worked out from the molar mass of the structure shown. Read-outs that look alike come from different tables or passages of the source. Where no end group is shown, it is not given here.

Columns and labels:
C. albicans CCARM 14020 = assay: MIC in antibiotic-tolerant fungi; format: cell-based; conditions: Candida albicans, CCARM14020
Method: (§1) To measure the fungicidal activity of the peptide prepared in Example 1, the present inventors measured MIC, the minimal concentration that can keep the strain without being divided. For the measurement of fungicidal activity, pathogenic fungi selected from the group consisting of Candida albicans, C. catenulate, C. intermidia, C. rugosa, C. glabrata and C. melibiosica were used. After cultured in optimal media, the strains were diluted at the density of 2×10^5 cells/ml, which were then inoculated on microtitrate plates. The peptide synthesized in Example 1 and the positive control peptide (Melittin) were 2-fold diluted in solution 1 (10 mM sodium phosphate buffer, pH 7.2) and solution 2 (phosphate buffered saline) from 128 μM/well, which were added in the plate, followed by culture at 37° C. for 18˜24 hours. OD620 was measured with a microtitrate plate reader to determine MIC of each strain.
(§2) To measure the fungicidal activity of the peptide of the present invention in antibiotic-tolerant fungi, MIC of the peptide was measured by the same manner as described in Example <2-2> using RMPI 1640 and antibiotic-tolerant Candida albicans (C. albicans CCARM 14001, 14007, 14020).

C. albicans CCARM 14001 = assay: MIC in antibiotic-tolerant fungi; format: cell-based; conditions: Candida albicans, CCARM14001; RMPI 1640
Method: as §1, §2

C. albicans CCARM 14007 = assay: MIC in antibiotic-tolerant fungi; format: cell-based; conditions: Candida albicans, CCARM14007; RMPI 1640
Method: as §1, §2

[1] = system: S. typhimurium CCARM 8009; format: cell-based, Salmonella typhimurium
From the text: (§3) To measure the antibacterial activity of the peptide prepared in Example 1, the present inventors measured MIC, the minimal concentration that can keep the strain without being divided. For the measurement of antibacterial activity, Gram-positive bacteria selected from the group consisting of Bacillus subtilis, Staphylococcus aureus and Listeria monocytogenes, Gram-negative bacteria selected from the group consisting of Escherichia coli, Psedomonas aeruginosa and Salmonella typhimurium, and antibiotic-tolerant strains selected from the group consisting of E. coli (E. coli CCARM 1229, 1238), Salmonella (S. typhimurium CCARM 8007, 8009, 8013) and Staphylococcus (S. aureus CCARM 3089, 3090, 3108, 3114, 3126) were used. After cultured in optimal media, the strains were diluted at the density of 2×10^5 cells/ml, which were then inoculated on microtitrate plates. The peptide synthesized in Example 1 and the positive control peptide (Melittin) were 2-fold diluted in sodium phosphate buffer and phosphate buffered saline (PBS) from 200 μM/well, which were added in the plate, followed by culture at 37° C. for 18˜24 hours. OD620 was measured with a microtitrate plate reader to determine MIC of each strain. The results are presented in Table 1 (the number in bracket indicates the one obtained from PBS).

[2] = system: S. typhimurium CCARM 8007; format: cell-based, Salmonella typhimurium
From the text: as §3

[3] = system: S. typhimurium CCARM 8013; format: cell-based, Salmonella typhimurium
From the text: as §3

S. aureus CCARM 3108 = format: cell-based, Staphylococcus aureus
From the text: as §3

S. aureus CCARM 3089 = format: cell-based, Staphylococcus aureus
From the text: as §3

S. aureus CCARM 3090 = format: cell-based, Staphylococcus aureus
From the text: as §3

S. aureus CCARM 3114 = format: cell-based, Staphylococcus aureus
From the text: as §3

L. monocytogenes = format: cell-based, Listeria monocytogenes
From the text: as §3

E. coli CCARM 1238 = format: cell-based, Escherichia coli
From the text: as §3

S. aureus CCARM 3126 = assay: MIC in antibiotic-tolerant strains; format: cell-based, Staphylococcus aureus
From the text: as §3

Molecule: OC(Cn1cncn1)(Cn1cncn1)c1ccc(F)cc1F [Fluconazole]
- MIC (C. albicans CCARM 14020): > 128 µM
- MIC (C. albicans CCARM 14001): > 128 µM
- MIC (C. albicans CCARM 14007): > 128 µM

Molecule: CC[C@H](C)[C@H](NC(=O)CN)C(=O)NCC(=O)N[C@@H](C)C(=O)N[C@H](C(=O)N[C@@H](CC(C)C)C(=O)N[C@@H](CCCCN)C(=O)N[C@H](C(=O)N[C@@H](CC(C)C)C(=O)N[C@H](C(=O)N[C@H](C(=O)NCC(=O)N[C@@H](CC(C)C)C(=O)N1CCC[C@H]1C(=O)N[C@@H](C)C(=O)N[C@@H](CC(C)C)C(=O)N[C@H](C(=O)N[C@@H](CO)C(=O)N[C@@H](Cc1c[nH]c2ccccc12)C(=O)N[C@H](C(=O)N[C@@H](CCCCN)C(=O)N[C@@H](CCCNC(=N)N)C(=O)N[C@@H](CCCCN)C(=O)N[C@@H](CCCNC(=N)N)C(=O)N[C@@H](CCC(N)=O)C(=O)N[C@@H](CCC(N)=O)C(N)=O)[C@@H](C)CC)[C@@H](C)CC)[C@@H](C)O)[C@@H](C)O)C(C)C)C(C)C [Melittin]
- MIC ([1]; PBS (number in bracket)): (12.5) μM
- MIC ([1]; sodium phosphate buffer): 6.25 µM (≈ 17.8 µg/mL)
- MIC ([2]; PBS (number in bracket)): (12.5) μM
- MIC ([2]; sodium phosphate buffer): 6.25 µM (≈ 17.8 µg/mL)
- MIC ([3]; PBS (number in bracket)): (6.25) μM
- MIC ([3]; sodium phosphate buffer): 3.12 µM (≈ 8.88 µg/mL)
- MIC (S. aureus CCARM 3108; PBS (number in bracket)): (1.56) μM
- MIC (S. aureus CCARM 3108; sodium phosphate buffer): 1.56 µM (≈ 4.44 µg/mL)
- MIC (S. aureus CCARM 3089; PBS (number in bracket)): (1.56) μM
- MIC (S. aureus CCARM 3089; sodium phosphate buffer): 1.56 µM (≈ 4.44 µg/mL)
- MIC (S. aureus CCARM 3090; PBS (number in bracket)): (3.12) μM
- MIC (S. aureus CCARM 3090; sodium phosphate buffer): 3.12 µM (≈ 8.88 µg/mL)
- MIC (S. aureus CCARM 3114; PBS (number in bracket)): (3.12) μM
- MIC (S. aureus CCARM 3114; sodium phosphate buffer): 3.12 µM (≈ 8.88 µg/mL)
- MIC (L. monocytogenes; PBS (number in bracket)): (1.56) μM
- MIC (L. monocytogenes; sodium phosphate buffer): 1.56 µM (≈ 4.44 µg/mL)
- MIC (E. coli CCARM 1238; PBS (number in bracket)): (1.56) μM
- MIC (E. coli CCARM 1238; sodium phosphate buffer): 1.56 µM (≈ 4.44 µg/mL)
- MIC (S. aureus CCARM 3126; PBS (number in bracket)): (1.56) μM
- MIC (S. aureus CCARM 3126; sodium phosphate buffer): 1.56 µM (≈ 4.44 µg/mL)

Molecule: KWKWKWKW-NH2 [SEQ. ID. NO: 3]
- MIC (S. aureus CCARM 3126; sodium phosphate buffer): 12.5 µM
